# Reference: the supplement of paper PMC10307832
# Experiments:
# Test in all cases: relative viability (nuclei count vs DMSO), 5 days (fraction); higher = more cells survive
# [1] = compound: CCCS(=O)(=O)Nc1ccc(F)c(C(=O)c2c[nH]c3ncc(-c4ccc(Cl)cc4)cc23)c1F [Vemurafenib] + COc1cccc2cc(-c3nc([C@H]4CC[C@H](C(=O)O)CC4)n4ncnc(N)c34)[nH]c12 [OSI-027] (partner 0.5 µM)
# How it was run: (§1)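 Cells from lung cancer lines were seeded into 1536-well plates and, one day later, dosed by pin tool. Treatments were either a single drug or a fixed dose of an anchor drug with five library-drug doses (not always all listed) in √10 steps. After 5 days, nuclei were stained in a one-step fixation (final 0.05% Triton X-100, 1% formaldehyde, 1 ug/ml Hoechst) and counted on 4× images, and relative viability is the treated-to-vehicle nuclei ratio, as the median of duplicate plates.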
# [2] = compound: COc1cccc2cc(-c3nc([C@H]4CC[C@H](C(=O)O)CC4)n4ncnc(N)c34)[nH]c12 [OSI-027] + Nc1nc2[nH]cc(CCc3ccc(C(=O)N[C@@H](CCC(=O)O)C(=O)O)cc3)c2c(=O)[nH]1 [Pemetrexed] (partner 0.2 µM)
# How it was run: as §1
# [3] = compound: Cc1nc(NC(=O)N2CCC[C@H]2C(N)=O)sc1-c1ccnc(C(C)(C)C(F)(F)F)c1 [Alpelisib] + CC(=O)Nc1cccc(-n2c(=O)n(C3CC3)c(=O)c3c(Nc4ccc(I)cc4F)n(C)c(=O)c(C)c32)c1 [Trametinib] (partner 0.02 µM)
# How it was run: as §1
# [4] = compound: Cc1nc(NC(=O)N2CCC[C@H]2C(N)=O)sc1-c1ccnc(C(C)(C)C(F)(F)F)c1 [Alpelisib] + COc1cc2c(Oc3ccc(NC(=O)C4(C(=O)Nc5ccc(F)cc5)CC4)cc3F)ccnc2cc1OCCCN1CCOCC1 [Foretinib] (partner 0.25 µM)
# How it was run: as §1
Cell Line,relative viability ([1]; first compound 0.03162 µM),relative viability ([1]; first compound 0.1 µM),relative viability ([1]; first compound 0.3162 µM),relative viability ([1]; first compound 1 µM),relative viability ([2]; first compound 0.01 µM),relative viability ([2]; first compound 0.03162 µM),relative viability ([2]; first compound 0.1 µM),relative viability ([2]; first compound 0.3162 µM),relative viability ([2]; first compound 1 µM),relative viability ([3]; first compound 0.04 µM),relative viability ([3]; first compound 0.1265 µM),relative viability ([3]; first compound 0.4 µM),relative viability ([3]; first compound 1.265 µM),relative viability ([3]; first compound 4 µM),relative viability ([4]; first compound 0.04 µM),relative viability ([4]; first compound 0.1265 µM),relative viability ([4]; first compound 0.4 µM),relative viability ([4]; first compound 1.265 µM),relative viability ([4]; first compound 4 µM)
201T,0.757,0.78,0.776,0.497,0.316,0.348,0.313,0.332,0.305,0.7,0.723,0.716,0.645,0.586,1.11,1.06,1.29,0.841,0.71
A549,–,–,–,–,–,–,–,–,–,–,–,–,–,–,0.926,0.875,0.956,0.662,0.599
A-427,0.488,0.404,0.453,0.466,0.575,0.966,0.783,0.737,0.616,0.717,0.624,0.681,0.484,0.501,1.19,0.833,1.11,0.831,0.992
ABC-1,0.417,0.435,0.539,0.474,–,–,–,–,–,–,–,–,–,–,1.28,0.876,0.878,0.611,0.78
BEN,0.27,0.267,–,0.265,0.78,0.754,0.472,0.586,0.46,0.909,1.17,1.17,0.863,1.03,0.792,0.401,0.732,0.737,0.521
CAL-12T,0.542,0.461,0.801,0.503,1.17,1.18,1.22,0.976,0.527,0.371,0.259,0.378,0.266,0.193,1.08,1.24,1.14,1.06,1.07
COR-L23,0.662,0.777,0.579,0.646,0.194,0.194,0.193,0.181,0.197,0.534,0.484,0.579,0.378,0.353,1.01,0.933,1.12,0.843,0.839
COR-L 105,0.649,–,–,0.582,1.22,1.18,1.13,1.04,0.999,0.422,0.458,0.493,0.37,0.447,1.08,1.26,1.02,1,1.08
Calu-6,–,–,–,–,–,–,–,–,–,–,–,–,–,–,0.926,0.842,0.931,0.871,0.617
ChaGo-K-1,0.535,0.549,0.419,0.487,0.259,0.311,0.251,0.337,0.262,0.725,0.963,0.856,0.756,0.586,0.881,0.91,1.01,0.807,0.8
EBC-1,–,–,–,–,–,–,–,–,–,–,–,–,–,–,0.101,0.0979,0.0957,0.108,0.114
EKVX,0.634,–,0.791,0.688,0.438,0.391,0.486,0.382,0.403,0.306,0.334,0.27,0.341,0.249,0.519,0.726,0.66,0.67,0.73
EMC-BAC-2,0.38,0.382,0.22,0.329,0.385,0.493,0.478,0.472,0.392,0.818,–,0.892,0.529,0.599,0.973,0.867,1.01,0.689,0.592
EPLC-272H,0.268,0.219,0.275,0.243,0.357,0.279,0.263,0.273,0.338,0.268,0.255,0.315,0.238,0.231,0.723,0.674,0.754,0.376,0.422
H3255,0.582,–,0.583,0.565,0.517,0.569,0.507,0.513,0.495,0.649,0.541,0.642,0.422,0.391,0.973,0.753,0.96,0.695,0.562
HARA,0.428,0.186,0.407,0.229,0.249,0.221,0.231,0.227,0.264,0.633,0.732,0.529,0.257,0.265,0.914,0.888,0.879,0.682,0.533
HCC-15,0.648,0.73,–,0.52,0.221,0.239,0.211,0.227,0.231,0.354,0.37,0.366,0.248,0.211,0.982,1,0.961,0.792,0.735
